Experimental data reported in PMC11044151, “Development of Half-Sandwich Ru, Os, Rh, and Ir Complexes Bearing the Pyridine-2-ylmethanimine Bidentate Ligand Derived from 7-Chloroquinazolin-4(3H)-one with Enhanced Antiproliferative Activity” (ACS Omega, 2024).
Like-named read-outs stand apart in the source and are kept apart here.

Key:
A549 = experiment: Neutral red uptake antiproliferative assay, A549; details: for IC50: read-out: IC50 A549
Source text: (§1) To assess the impact of conjugating half-sandwich complexes with amines 1 via an imine-pyridine ligand on biological activity, we examined the antiproliferative potential of (R)- and (S)-1 and organometallic conjugates 3a–d and 4a–d in selected human cancer cell lines: alveolar basal epithelial cell adenocarcinoma (A549), colorectal adenocarcinomas (Colo205 and SW620), colorectal carcinoma (HCT116), hepatocellular carcinoma (HepG2), and breast adenocarcinoma (MCF7). The choice of cell lines was dictated by results of previously published clinical trials on ispinesib.[49],[50]
(§2) Cell lines used in this study were purchased from the American Type Culture Collection via LGC Standards. Human normal lung fibroblasts (MRC-5), alveolar basal epithelial cell adenocarcinoma (A549), colorectal adenocarcinoma (Colo205), hepatocellular carcinoma (HepG2), breast adenocarcinoma (MCF7), and colorectal adenocarcinoma (SW620) and its MDR variants[55] were cultured in standard conditions (37 °C, 5% CO2, 100% relative humidity) in high glucose DMEM medium supplemented with GlutaMax, HEPES (ThermoFisher Scientific) and 10% fetal bovine serum (EURx, Poland). All cell lines were tested for Mycoplasma contamination using a MycoProbe mycoplasma detection kit (R&D System).
(§3) For this purpose, neutral red uptake assay was performed. 10^4 of cells were seeded per well of a 96-well plate and left overnight to allow cells to attach to the surface. Then, the cells were exposed to a desired concentration of tested compounds. Stock solutions were prepared in DMSO and were used immediately after preparation. The final concentration of DMSO was constant and nontoxic (0.1% v/v). After 70 h of culture, neutral red was added to the final concentration of 1 mM. After 2 h of incubation with the dye, the medium was aspirated and cells were washed with ice-cold PBS. The dye was released using 100 μL of the solubilizer (1% acetic acid in 50% ethanol) on an orbital shaker (10 min). The absorbance at 540 nm was measured using an EnVision multilabel plate reader (PerkinElmer). […] The IC90 and IC50 parameters were calculated using GraphPad Prism v9 software using the five-parameter nonlinear logistic regression model.

HCT116 = experiment: cells; details: for IC50: read-out: IC50 HCT116
Source text: as §1, §3

Colo205 = experiment: cells; details: for IC50: read-out: IC50 Colo205
Source text: as §1, §2, §3

HepG2 = experiment: cells; details: for IC50: read-out: IC50 HepG2
Source text: as §1, §2, §3

MCF7 = experiment: cells; details: for IC50: read-out: IC50 MCF7
Source text: as §1, §2, §3

SW620 = experiment: Neutral red uptake antiproliferative assay, SW620; type: cell-based, human; details: for IC50: exposure time 72 h, n = 3, 95% CI given
Source text: as §1, §2, §3

SW620C = experiment: Neutral red uptake antiproliferative assay, MDR line SW620C; type: cell-based, human; details: for IC50: exposure time 72 h, n = 3, ABCG2-overexpressing MDR line
Source text: (§4) Next, we evaluated the cytotoxicity of the synthesized complexes toward the panel of six multidrug-resistant (MDR) cell lines derived from SW620 and characterized by the overexpression of various ABC proteins, namely, ABCG2 (SW620C and SW620Mito), ABCC1 (SW620M and SW620E), and ABCB1 (SW620D, SW620E, and SW620V) (Table 3, Figures S29 and S32). […] The activity of the complexes derived from the ligand (S)-2 is also considerably higher than that of the compounds containing the ligand (R)-2. The cytotoxicity of both rhodium 4c and iridium 4d complexes is higher than that of amine (S)-1. In the case of 4c, the increase in cytotoxicity is low, with the highest value of 3.7-fold for the SW620Mito line. […] Compound 4d also exerts a 2.1- and 2.6-fold higher cytotoxicity than […] against the SW620C and SW620D lines.
(§5) For this purpose, neutral red uptake assay was performed. […] The results were presented as a percentage of control.

SW620D = experiment: Neutral red uptake antiproliferative assay, MDR line SW620D; type: cell-based, human; details: for IC50: exposure time 72 h, n = 3, ABCB1-overexpressing MDR line
Source text: as §4, §5

SW620E = experiment: Neutral red uptake antiproliferative assay, MDR line SW620E; type: cell-based, human; details: for IC50: exposure time 72 h, n = 3, ABCC1- and ABCB1-overexpressing MDR line
Source text: as §4, §5

SW620M = experiment: Neutral red uptake antiproliferative assay, MDR line SW620M; type: cell-based, human; details: for IC50: exposure time 72 h, n = 3, ABCC1-overexpressing MDR line
Source text: as §4, §5

SW620V = experiment: Neutral red uptake antiproliferative assay, MDR line SW620V; type: cell-based, human; details: for IC50: exposure time 72 h, n = 3, ABCB1-overexpressing MDR line
Source text: as §4, §5

SW620Mito = experiment: Neutral red uptake antiproliferative assay, MDR line SW620Mito; type: cell-based, human; details: for IC50: exposure time 72 h, n = 3, ABCG2-overexpressing MDR line
Source text: as §4, §5

SW620 cells = experiment: Cell cycle distribution by flow cytometry, SW620; type: cell-based, human; details: concentration equal to IC75 of (S)-1 / (R)-1, mean ± SEM, n = 3; for Cell cycle fraction G1, 24 h / Cell cycle fraction G2/M, 24 h / Cell cycle fraction S, 24 h: SW620, 24 h; for Cell cycle fraction G1, 48 h / Cell cycle fraction G2/M, 48 h / Cell cycle fraction S, 48 h: SW620, 48 h
Protocol: Ispinesib leads to the formation of monopolar mitotic spindles and a blockade of chromosome segregation in cancer cells. Using flow cytometry, we assessed the cell cycle distribution in the SW620 and SW620E cells exposed to the studied compounds for 24 and 48 h. […] Both complexes, 3c and 3d, decrease the percentage of cells in the G1/G0 phase and increase the percentage in the S and G2/M phases. […] Furthermore, prolonged exposure to the compounds increases the percentage of cells in the G2/M phase, with the most intensive effect observed for 3c and 3d.
SW620 and SW620E cells lines (vulnerable and resistant variants, respectively) were seeded in 6-well plates at a density of 10^5 cells per well. […] After 24 h, the cells were trypsinized and fixed with ice-cold 70% v/v ethanol. The cells were stained with 75 μM propidium iodide with 50 Kunitz units of RNase A in PBS for 30 min at 37 °C. All samples were analyzed using a LSRII flow cytometer (Becton Dickinson) at a PE channel ([…]). Cell cycle phase distribution was determined using a built-in cell cycle module (Watson pragmatic algorithm) by FlowJo 7.6.1 software.

KSP = target: T1, KSP (Homo sapiens, UniProt P52732); experiment: Kinesin ATPase inhibition (ATP hydrolysis) end-point assay; type: biochemical; details: 100 nM stated for ispinesib and (R)-1; concentration not restated for the complexes
T1 construct: purchased Cytoskeleton, Inc
T1 sequence (P52732 1-368 limits assumed): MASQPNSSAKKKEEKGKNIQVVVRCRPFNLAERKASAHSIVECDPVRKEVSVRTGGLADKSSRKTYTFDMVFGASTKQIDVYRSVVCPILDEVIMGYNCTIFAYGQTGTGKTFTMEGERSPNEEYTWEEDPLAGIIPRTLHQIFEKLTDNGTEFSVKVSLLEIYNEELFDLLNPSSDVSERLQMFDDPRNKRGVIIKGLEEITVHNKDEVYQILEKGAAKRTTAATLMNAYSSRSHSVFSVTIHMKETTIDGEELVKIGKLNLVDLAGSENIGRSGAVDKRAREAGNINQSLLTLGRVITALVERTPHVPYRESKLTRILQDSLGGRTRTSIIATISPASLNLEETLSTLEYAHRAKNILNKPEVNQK
Protocol: The mechanism of the anticancer activity of ispinesib is related to the inhibition of the activity of the KSP. Thus, we studied the synthesized compounds’ ability to inhibit KSP activity using the adenosine 5′-triphosphate (ATP) hydrolysis assay.
The potential kinesin modulatory activity of tested compounds was performed using a Kinesin ATPase end-point biochem kit (Cytoskeleton, Inc.). […] The experiment was performed according to the manufacturer’s instructions. One μg of tested kinesin (KSP) was used per reaction. Phosphate release was measured at the absorbance 650 nm using an EnVision multilabel plate reader (PerkinElmer).

[1] = test system: human cancer cell lines (A549, Colo205, HCT116, HepG2, MCF7, SW620); experiment: Neutral red uptake antiproliferative assay, panel of human cancer cell lines; type: cell-based; details: cell line not stated
Source text: as §1
as §3, with “The dye was released using 100 μL of the solubilizer (1% acetic acid in 50% ethanol) on an orbital shaker (10 min).” left out

[2] = exposure time 72 h, n = 3, 95% CI given
[3] = vs corresponding amine (R)-1 or (S)-1, 72 h
[4] = compared with the amine of opposite configuration, (R)-1

CC(C)[C@@H](N)c1nc2cc(Cl)ccc2c(=O)n1Cc1ccccc1 [(R)-1, reference compound]
IC50 (A549; Homo sapiens, A549, 72 h): 2210 nM
IC50 (HCT116; Homo sapiens, HCT-116, 72 h): 346 nM
IC50 (Colo205; Homo sapiens, COLO 205, 72 h): 107 nM
IC50 (HepG2; Homo sapiens, HepG2, 72 h): 566 nM
IC50 (MCF7; Homo sapiens, MCF7, 72 h): 231 nM
IC50 (SW620; Homo sapiens, SW-620): 96 nM
IC50 (SW620C; Homo sapiens): 721 nM
IC50 (SW620D; Homo sapiens): 1120 nM
IC50 (SW620E; Homo sapiens): 835 nM
IC50 (SW620M; Homo sapiens): 241 nM
IC50 (SW620V; Homo sapiens): 206 nM
IC50 (SW620Mito; Homo sapiens): 261 nM
Cell cycle fraction G1, 24 h (SW620 cells): 45.4 ± 1.0%
Cell cycle fraction G2/M, 24 h (SW620 cells): 36.6 ± 2.2%
Cell cycle fraction S, 24 h (SW620 cells): 17.2 ± 1.3%
Cell cycle fraction G1, 48 h (SW620 cells): 36.2 ± 1.4%
Cell cycle fraction G2/M, 48 h (SW620 cells): 42.1 ± 0.4%
Cell cycle fraction S, 48 h (SW620 cells): 19.0 ± 0.6%
KSP residual activity (KSP): about 35%

CC(C)[C@H](N=Cc1ccccn1)c1nc2cc(Cl)ccc2c(=O)n1Cc1ccccc1.Cc1c(C)c(C)[c-](C)c1C.F[P-](F)(F)(F)(F)F.[Cl-].[Ir+3] [Compound 4d, [(Cp*)Ir((S)-2)Cl]PF6]
IC50 (A549; [2]): 764 nM
activity factor IC50(1)/IC50(3a–4d), A549 (A549; [3]): (9.23)
IC50 (HCT116; [2]): 222 nM
activity factor IC50(1)/IC50(3a–4d), HCT116 (HCT116; [3]): (36.31)
IC50 (Colo205; [2]): 216 nM
activity factor IC50(1)/IC50(3a–4d), Colo205 (Colo205; [3]): (28.1)
IC50 (HepG2; [2]): 218 nM
activity factor IC50(1)/IC50(3a–4d), HepG2 (HepG2; [3]): (11.01)
IC50 (MCF7; [2]): 216 nM
activity factor IC50(1)/IC50(3a–4d), MCF7 (MCF7; [3]): (18.10)
IC50 (SW620): 139 nM
activity factor IC50(1)/IC50(3a–4d), SW620 (SW620; [3]): (20.65)
higher cytotoxicity than (R)-1, SW620C (SW620C; [4]): 2.1 fold
IC50 (SW620C): 343 nM
activity factor IC50(1)/IC50(3a–4d), SW620C (SW620C; [3]): (9.71)
higher cytotoxicity than (R)-1, SW620D (SW620D; [4]): 2.6 fold
IC50 (SW620D): 425 nM
activity factor IC50(1)/IC50(3a–4d), SW620D (SW620D; [3]): (9.76)
IC50 (SW620E): 663 nM
activity factor IC50(1)/IC50(3a–4d), SW620E (SW620E; [3]): (6.11)
IC50 (SW620M): 387 nM
activity factor IC50(1)/IC50(3a–4d), SW620M (SW620M; [3]): (8.94)
IC50 (SW620V): 411 nM
activity factor IC50(1)/IC50(3a–4d), SW620V (SW620V; [3]): (8.37)
IC50 (SW620Mito): 365 nM
activity factor IC50(1)/IC50(3a–4d), SW620Mito (SW620Mito; [3]): (10.71)
Cell cycle fraction G1, 24 h (SW620 cells): 51.7 ± 1.2%
Cell cycle fraction G2/M, 24 h (SW620 cells): 28.9 ± 0.4%
Cell cycle fraction S, 24 h (SW620 cells): 14.3 ± 0.2%
Cell cycle fraction G1, 48 h (SW620 cells): 44.1 ± 0.5%
Cell cycle fraction G2/M, 48 h (SW620 cells): 40.6 ± 1.3%
Cell cycle fraction S, 48 h (SW620 cells): 13.7 ± 0.4%
higher cytotoxicity compared to (R)-1 [1]: 1.6 fold
higher cytotoxicity compared to (S)-1 [1]: 2.6 fold

Cc1ccc(C(=O)N(CCCN)[C@@H](c2nc3cc(Cl)ccc3c(=O)n2Cc2ccccc2)C(C)C)cc1 [ispinesib, reference compound]
KSP residual activity (KSP): 2.2%
